# Laboratory results: patent US20170190671A1, “BIS(ARYL)CATECHOL DERIVATIVES AS HERBICIDES” (E I DU PONT DE NEMOURS AND COMPANY, priority 2014, published 2017)
# How the values were obtained:
# Assay type in all cases: in vivo
# [1] = system: velvetleaf (Abutilon theophrasti); test: Test A preemergence
# Procedure, shortened: (§1)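 Scoring: eye-based comparison with untreated controls, 0 for no effect through 100 for complete control, at about day 10. Treatments: directed soil spray preemergence; foliar spray postemergence on 2–10 cm plants at the one- to two-leaf stage. Medium: loam soil with sand.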
# [2] = system: corn (Zea mays); test: Test A preemergence; conditions: 0 to 100 scale
# Procedure, shortened: as §1
# [3] = system: morningglory (Ipomoea spp.); test: Test A preemergence
# Procedure, shortened: as §1
# [4] = system: wheat (Triticum aestivum); test: Test A preemergence
# Procedure, shortened: as §1
# [5] = system: large (Lg) crabgrass (Digitaria sanguinalis); test: Test A preemergence
# Procedure, shortened: as §1
# [6] = system: waterhemp (common waterhemp, Amaranthus rudis); test: Test E postemergence; conditions: scale 0 to 100
# Description: (§2) Seeds of plant species selected from corn (Zea mays), soybean (Glycine max), velvetleaf (Abutilon theophrasti), cocklebur (common cocklebur, Xanthium strumarium), lambsquarters (Chenopodium album), wild poinsettia (Euphorbia heterophylla), palmer pigweed (Amaranthus palmeri), waterhemp (common waterhemp, Amaranthus rudis), surinam grass (Brachiaria decumbens), large (Lg) crabgrass (Digitaria sanguinalis), Brazilian crabgrass (Digitaria horizontalis), fall panicum (Panicum dichotomiflorum), giant foxtail (Setaria faberii), green foxtail (Setaria viridis), goosegrass (Eleusine indica), johnsongrass (Sorghum halepense), ragweed (common ragweed, Ambrosia elatior), barnyardgrass (Echinochloa crus-galli), sandbur (southern sandbur, Cenchrus echinatus), arrowleaf sida (Sida rhombifolia), Italian ryegrass (Lolium multiflorum), dayflower (Virginia (VA) dayflower, Commelina virginica), field bindweed (Convolvulus arvensis), morningglory (Ipomoea coccinea), nightshade (eastern black nightshade, Solanum ptycanthum), kochia (Kochia scoparia), yellow nutsedge (Cyperus esculentus), horseweed (Conyza canadensis), and hairy beggarticks (Bidens pilosa), were planted into a silt loam soil and treated preemergence with test chemicals formulated in a non-phytotoxic solvent mixture which included a surfactant.
# (§3) At the same time, plants from these crop and weed species and also waterhemp_RES1, (ALS & Triazine resistant common waterhemp, Amaranthus rudis), and waterhemp_RES2, (ALS & HPPD resistant common waterhemp, Amaranthus rudis) were planted in pots containing Redi-Earth® planting medium (Scotts Company, 14111 Scottslawn Road, Marysville, Ohio 43041) comprising spaghnum peat moss, vermiculite, wetting agent and starter nutrients were treated with postemergence applications of test chemicals formulated in the same manner. Plants ranged in height from 2 to 18 cm for postemergence treatments (1- to 4-leaf stage). Treated plants and controls were maintained in a greenhouse for 14 to 21 days, after which time all species were compared to controls and visually evaluated. Plant response ratings, summarized in Table E, are based on a scale of 0 to 100 where 0 is no effect and 100 is complete control. A dash (-) response means no test result.
# [7] = system: Italian ryegrass (Lolium multiflorum); test: Test E postemergence; conditions: scale 0 to 100
# Description: as §2, §3
# [8] = system: waterhemp_RES1 (ALS & Triazine resistant common waterhemp, Amaranthus rudis); test: Test E postemergence; conditions: scale 0 to 100
# Description: as §2, §3
# [9] = system: kochia (Kochia scoparia); test: Test E postemergence; conditions: scale 0 to 100
# Description: as §2, §3
# [10] = system: fall panicum (Panicum dichotomiflorum); test: Test E postemergence; conditions: scale 0 to 100
# Description: as §2, §3
# [11] = system: field bindweed (Convolvulus arvensis); test: Test E postemergence; conditions: scale 0 to 100
# Description: as §2, §3
# [12] = system: wild poinsettia (Euphorbia heterophylla); test: Test E postemergence; conditions: scale 0 to 100
# Description: as §2, §3
# [13] = system: Brazilian crabgrass (Digitaria horizontalis); test: Test E postemergence; conditions: scale 0 to 100
# Description: as §2, §3
# [14] = system: arrowleaf sida (Sida rhombifolia); test: Test E postemergence; conditions: scale 0 to 100
# Description: as §2, §3
# [15] = system: waterhemp_RES2 (ALS & HPPD resistant common waterhemp, Amaranthus rudis); test: Test E postemergence; conditions: scale 0 to 100
# Description: as §2, §3
# [16] = system: sandbur (southern sandbur, Cenchrus echinatus); test: Test E postemergence; conditions: scale 0 to 100
# Description: as §2, §3
# [17] = system: hairy beggarticks (Bidens pilosa); test: Test E postemergence; conditions: scale 0 to 100
# Description: as §2, §3
# [18] = system: palmer pigweed (Amaranthus palmeri); test: Test E postemergence; conditions: scale 0 to 100
# Description: as §2, §3
# [19] = 125 g ai/ha, 0 to 100 scale (0 no effect, 100 complete control)
compound,measurement,setting,value
"Fc1cccc(Oc2ncc(Cl)cn2)c1Oc1ncc(Cl)cn1 [Compound 21, 2,2′-[[3-fluoro-1,2-phenylene]bis(oxy)]bis[5-chloropyrimidine]]",Velvetleaf plant response rating,[1]; [19],80
same,"Plant response rating, Velvetleaf","[1]; 500 g ai/ha, 0 to 100 scale",90
same,"Plant response rating, Corn",[2]; 125 g ai/ha,40
same,"Plant response rating, Corn",[2]; 500 g ai/ha,60
same,Morningglory plant response rating,[3]; [19],90
same,"Plant response rating, Morningglory","[3]; 500 g ai/ha, 0 to 100 scale",100
same,Wheat plant response rating,[4]; [19],60
same,"Plant response rating, Wheat","[4]; 500 g ai/ha, 0 to 100 scale",60
same,"Crabgrass, Large plant response rating",[5]; [19],100
same,"Plant response rating, Crabgrass, Large","[5]; 500 g ai/ha, 0 to 100 scale",100
N#Cc1cccc(Oc2ncc(Cl)cn2)c1Oc1ccc(Cl)cc1 [Compound 36],"Plant response rating, Waterhemp",[6]; 16 g ai/ha,95
same,"Plant response rating, Waterhemp",[6]; 31 g ai/ha,90
same,"Plant response rating, Waterhemp",[6]; 62 g ai/ha,95
same,"Plant response rating, Waterhemp",[6]; 125 g ai/ha,95
same,"Plant response rating, Ryegrass, Italian",[7]; 16 g ai/ha,10
same,"Plant response rating, Ryegrass, Italian",[7]; 31 g ai/ha,15
same,"Plant response rating, Ryegrass, Italian",[7]; 62 g ai/ha,10
same,"Plant response rating, Ryegrass, Italian",[7]; 125 g ai/ha,30
same,"Plant response rating, Waterhemp_RES1",[8]; 16 g ai/ha,98
same,"Plant response rating, Waterhemp_RES1",[8]; 31 g ai/ha,95
same,"Plant response rating, Waterhemp_RES1",[8]; 62 g ai/ha,95
same,"Plant response rating, Waterhemp_RES1",[8]; 125 g ai/ha,100
same,"Plant response rating, Kochia",[9]; 16 g ai/ha,90
same,"Plant response rating, Kochia",[9]; 31 g ai/ha,95
same,"Plant response rating, Kochia",[9]; 62 g ai/ha,100
same,"Plant response rating, Kochia",[9]; 125 g ai/ha,95
same,"Plant response rating, Panicum, Fall",[10]; 16 g ai/ha,20
same,"Plant response rating, Panicum, Fall",[10]; 31 g ai/ha,25
same,"Plant response rating, Panicum, Fall",[10]; 62 g ai/ha,15
same,"Plant response rating, Panicum, Fall",[10]; 125 g ai/ha,25
same,"Plant response rating, Field Bindweed",[11]; 16 g ai/ha,40
same,"Plant response rating, Field Bindweed",[11]; 31 g ai/ha,50
same,"Plant response rating, Field Bindweed",[11]; 62 g ai/ha,65
same,"Plant response rating, Field Bindweed",[11]; 125 g ai/ha,85
same,"Plant response rating, Poinsettia, Wild",[12]; 16 g ai/ha,50
same,"Plant response rating, Poinsettia, Wild",[12]; 31 g ai/ha,60
same,"Plant response rating, Poinsettia, Wild",[12]; 62 g ai/ha,70
same,"Plant response rating, Poinsettia, Wild",[12]; 125 g ai/ha,90
same,"Plant response rating, Crabgrass, Brazil",[13]; 16 g ai/ha,20
same,"Plant response rating, Crabgrass, Brazil",[13]; 31 g ai/ha,20
same,"Plant response rating, Crabgrass, Brazil",[13]; 62 g ai/ha,30
same,"Plant response rating, Crabgrass, Brazil",[13]; 125 g ai/ha,30
same,"Plant response rating, Arrowleaf Sida",[14]; 16 g ai/ha,70
same,"Plant response rating, Arrowleaf Sida",[14]; 31 g ai/ha,70
same,"Plant response rating, Arrowleaf Sida",[14]; 62 g ai/ha,80
same,"Plant response rating, Arrowleaf Sida",[14]; 125 g ai/ha,85
same,"Plant response rating, Waterhemp_RES2",[15]; 16 g ai/ha,60
same,"Plant response rating, Waterhemp_RES2",[15]; 31 g ai/ha,90
same,"Plant response rating, Waterhemp_RES2",[15]; 62 g ai/ha,80
same,"Plant response rating, Waterhemp_RES2",[15]; 125 g ai/ha,90
same,"Plant response rating, Sandbur",[16]; 16 g ai/ha,10
same,"Plant response rating, Sandbur",[16]; 31 g ai/ha,20
same,"Plant response rating, Sandbur",[16]; 62 g ai/ha,20
same,"Plant response rating, Sandbur",[16]; 125 g ai/ha,25
same,"Plant response rating, Beggarticks",[17]; 16 g ai/ha,30
same,"Plant response rating, Beggarticks",[17]; 31 g ai/ha,35
same,"Plant response rating, Beggarticks",[17]; 62 g ai/ha,30
same,"Plant response rating, Beggarticks",[17]; 125 g ai/ha,40
same,"Plant response rating, Pigweed, Palmer",[18]; 16 g ai/ha,75
same,"Plant response rating, Pigweed, Palmer",[18]; 31 g ai/ha,85
same,"Plant response rating, Pigweed, Palmer",[18]; 62 g ai/ha,85
same,"Plant response rating, Pigweed, Palmer",[18]; 125 g ai/ha,85
"N#Cc1cccc(Oc2ncc(Cl)cn2)c1Oc1ncc(C(F)(F)F)cn1 [Compound 38, 3-[(5-chloro-2-pyrimidinyl)oxy]-2-[[5-(trifluoromethyl)-2-pyrimidinyl]oxy]-benzonitrile]","Plant response rating, Waterhemp",[6]; 16 g ai/ha,85
same,"Plant response rating, Waterhemp",[6]; 31 g ai/ha,90
same,"Plant response rating, Waterhemp",[6]; 62 g ai/ha,95
same,"Plant response rating, Waterhemp",[6]; 125 g ai/ha,95
same,"Plant response rating, Ryegrass, Italian",[7]; 16 g ai/ha,0
same,"Plant response rating, Ryegrass, Italian",[7]; 31 g ai/ha,5
same,"Plant response rating, Ryegrass, Italian",[7]; 62 g ai/ha,10
same,"Plant response rating, Ryegrass, Italian",[7]; 125 g ai/ha,15
same,"Plant response rating, Waterhemp_RES1",[8]; 16 g ai/ha,80
same,"Plant response rating, Waterhemp_RES1",[8]; 31 g ai/ha,90
same,"Plant response rating, Waterhemp_RES1",[8]; 62 g ai/ha,90
same,"Plant response rating, Waterhemp_RES1",[8]; 125 g ai/ha,95
same,"Plant response rating, Kochia",[9]; 16 g ai/ha,80
same,"Plant response rating, Kochia",[9]; 31 g ai/ha,80
same,"Plant response rating, Kochia",[9]; 62 g ai/ha,100
same,"Plant response rating, Kochia",[9]; 125 g ai/ha,98
same,"Plant response rating, Panicum, Fall",[10]; 16 g ai/ha,10
same,"Plant response rating, Panicum, Fall",[10]; 31 g ai/ha,10
same,"Plant response rating, Panicum, Fall",[10]; 62 g ai/ha,10
same,"Plant response rating, Field Bindweed",[11]; 16 g ai/ha,60
same,"Plant response rating, Field Bindweed",[11]; 31 g ai/ha,65
same,"Plant response rating, Field Bindweed",[11]; 62 g ai/ha,80
same,"Plant response rating, Field Bindweed",[11]; 125 g ai/ha,85
same,"Plant response rating, Crabgrass, Brazil",[13]; 16 g ai/ha,10
same,"Plant response rating, Crabgrass, Brazil",[13]; 31 g ai/ha,15
same,"Plant response rating, Crabgrass, Brazil",[13]; 62 g ai/ha,20
same,"Plant response rating, Crabgrass, Brazil",[13]; 125 g ai/ha,20
same,"Plant response rating, Arrowleaf Sida",[14]; 16 g ai/ha,60
same,"Plant response rating, Arrowleaf Sida",[14]; 31 g ai/ha,80
same,"Plant response rating, Arrowleaf Sida",[14]; 62 g ai/ha,90
same,"Plant response rating, Arrowleaf Sida",[14]; 125 g ai/ha,90
same,"Plant response rating, Waterhemp_RES2",[15]; 16 g ai/ha,75
same,"Plant response rating, Waterhemp_RES2",[15]; 31 g ai/ha,85
same,"Plant response rating, Waterhemp_RES2",[15]; 62 g ai/ha,90
same,"Plant response rating, Waterhemp_RES2",[15]; 125 g ai/ha,95
same,"Plant response rating, Sandbur",[16]; 16 g ai/ha,0
same,"Plant response rating, Sandbur",[16]; 31 g ai/ha,0
same,"Plant response rating, Sandbur",[16]; 62 g ai/ha,10
same,"Plant response rating, Sandbur",[16]; 125 g ai/ha,20
same,"Plant response rating, Beggarticks",[17]; 16 g ai/ha,35
same,"Plant response rating, Beggarticks",[17]; 31 g ai/ha,40
same,"Plant response rating, Beggarticks",[17]; 62 g ai/ha,40
same,"Plant response rating, Beggarticks",[17]; 125 g ai/ha,50
same,"Plant response rating, Pigweed, Palmer",[18]; 16 g ai/ha,60
same,"Plant response rating, Pigweed, Palmer",[18]; 31 g ai/ha,75
same,"Plant response rating, Pigweed, Palmer",[18]; 62 g ai/ha,60
same,"Plant response rating, Pigweed, Palmer",[18]; 125 g ai/ha,90
